# Measurements: ChEMBL document CHEMBL4145608, “Dehydrodiconiferyl Alcohol Inhibits Osteoclast Differentiation and Ovariectomy-Induced Bone Loss through Acting as an Estrogen Receptor Agonist” (J Nat Prod, 2018)
# The source made the active and inactive calls. No cut-off for these calls is given here.
# Experiments:
# [1] = tested on: RAW264.7; test: Inhibition of NF-kappaB signaling pathway in mouse RAW264.7 cells assessed as reduction in RANKL-induced Akt phosphorylation at 10 to 40 uM after 30 mins by Western blot method; format: cell-based
# [2] = tested on: Mus musculus; test: Anti-osteoporotic activity in Balb/c mouse assessed as decrease in OVX-induced trabecular spacing in femur at 25 to 100 mg/kg, ip administered for 4 weeks daily by microcomputed tomography; format: functional, organism-based
# [3] = target: Calcium/calmodulin-dependent protein kinase kinase 2 (Mus musculus) (UniProt Q8C078); test: Inhibition of RANKL-induced CAMKKbeta phosphorylation in mouse RAW264.7 cells at 10 to 40 uM after 24 hrs by Western blot analysis; format: cell-based
# Chain of Calcium/calmodulin-dependent protein kinase kinase 2 (Mus musculus) (Q8C078 2-588 limits assumed): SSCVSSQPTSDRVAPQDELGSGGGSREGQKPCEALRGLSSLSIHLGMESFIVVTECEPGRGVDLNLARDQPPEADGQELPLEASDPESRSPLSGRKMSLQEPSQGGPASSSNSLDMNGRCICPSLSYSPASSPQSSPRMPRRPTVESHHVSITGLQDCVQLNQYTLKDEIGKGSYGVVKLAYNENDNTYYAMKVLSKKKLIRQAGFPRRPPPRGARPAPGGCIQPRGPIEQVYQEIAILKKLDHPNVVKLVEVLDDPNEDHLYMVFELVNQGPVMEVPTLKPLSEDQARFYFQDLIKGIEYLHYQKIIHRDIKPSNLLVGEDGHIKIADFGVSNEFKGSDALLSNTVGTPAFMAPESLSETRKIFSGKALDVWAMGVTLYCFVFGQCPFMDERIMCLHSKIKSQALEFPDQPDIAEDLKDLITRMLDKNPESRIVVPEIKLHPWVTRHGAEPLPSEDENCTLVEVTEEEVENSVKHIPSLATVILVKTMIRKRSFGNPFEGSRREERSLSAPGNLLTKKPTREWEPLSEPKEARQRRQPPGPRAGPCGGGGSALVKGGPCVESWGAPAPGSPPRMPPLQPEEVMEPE
# [4] = tested on: RAW264.7; test: Inhibition of RANKL-induced osteoclast differentiation in mouse RAW264.7 cells harboring ERalpha siRNA assessed as decrease in NFATc1 mRNA level at 20 uM after 24 hrs by qRT-PCR method; format: functional, cell-based
# [5] = tested on: RAW264.7; test: Inhibition of RANKL-induced osteoclast differentiation in mouse RAW264.7 cells harboring ERalpha siRNA assessed as decrease in c-Fos mRNA level at 20 uM after 24 hrs by qRT-PCR method; format: functional, cell-based
# [6] = tested on: RAW264.7; test: Inhibition of RANKL-induced osteoclast differentiation in mouse RAW264.7 cells assessed as TRAP activity after 5 days in presence of PKA inhibitor H89; format: functional, cell-based
# [7] = tested on: RAW264.7; test: Inhibition of RANKL-induced osteoclast differentiation in mouse RAW264.7 cells harboring ERalpha siRNA assessed as decrease in TRAP activity at 20 uM after 5 days by microscopy; format: functional, cell-based
# [8] = tested on: Mus musculus; test: Anti-osteoporotic activity in Balb/c mouse assessed as inhibition of OVX-induced TRAP mRNA expression level in bone marrow at 25 to 100 mg/kg, ip administered for 4 weeks daily by qRT-PCR method; format: functional, organism-based
# [9] = tested on: Mus musculus; test: Anti-osteoporotic activity in Balb/c mouse assessed as inhibition of OVX-mediated decrease in trabecular thickness in femur at 25 to 100 mg/kg, ip administered for 4 weeks daily by microcomputed tomography; format: functional, organism-based
# [10] = tested on: RAW264.7; test: Inhibition of RANKL-induced PKA phosphorylation in mouse RAW264.7 cells at 10 to 40 uM after 24 hrs by Western blot analysis; format: cell-based
# [11] = tested on: RAW264.7; test: Inhibition of RANKL-induced osteoclast differentiation in mouse RAW264.7 cells harboring AMPKalpha1 siRNA assessed as decrease in size of TRAP-positive multinucleated cells after 5 days by microscopy; format: functional, cell-based
# [12] = tested on: RAW264.7; test: Inhibition of RANKL-induced osteoclast differentiation in mouse RAW264.7 cells assessed as decrease in NFATc1 mRNA level at 20 uM after 24 hrs in presence of ERbeta antagonist PHTPP by qRT-PCR method; format: functional, cell-based
# [13] = tested on: Mus musculus; test: Anti-osteoporotic activity in Balb/c mouse assessed as inhibition of OVX-induced c-Fos mRNA expression level in bone marrow at 25 to 100 mg/kg, ip administered for 4 weeks daily by qRT-PCR method; format: functional, organism-based
# [14] = tested on: RAW264.7; test: Cytotoxicity against mouse RANKL-treated RAW264.7 cells assessed as reduction in cell viability at 10 to 40 uM after 72 hrs by MTT assay; format: cell-based; settings: raw264.7, 72 h
# [15] = tested on: RAW264.7; test: Inhibition of RANKL-induced osteoclast differentiation in mouse RAW264.7 cells assessed as TRAP activity after 5 days in presence of estrogen receptor antagonist fulvestrant; format: functional, cell-based
# [16] = target: Estrogen receptor beta (Homo sapiens, UniProt Q92731); test: Inhibition of fluoromone binding to recombinant human full length untagged ERbeta expressed in insect cells after 2 hrs by fluorescence polarization assay
# Chain of Estrogen receptor beta (Q92731 whole entry): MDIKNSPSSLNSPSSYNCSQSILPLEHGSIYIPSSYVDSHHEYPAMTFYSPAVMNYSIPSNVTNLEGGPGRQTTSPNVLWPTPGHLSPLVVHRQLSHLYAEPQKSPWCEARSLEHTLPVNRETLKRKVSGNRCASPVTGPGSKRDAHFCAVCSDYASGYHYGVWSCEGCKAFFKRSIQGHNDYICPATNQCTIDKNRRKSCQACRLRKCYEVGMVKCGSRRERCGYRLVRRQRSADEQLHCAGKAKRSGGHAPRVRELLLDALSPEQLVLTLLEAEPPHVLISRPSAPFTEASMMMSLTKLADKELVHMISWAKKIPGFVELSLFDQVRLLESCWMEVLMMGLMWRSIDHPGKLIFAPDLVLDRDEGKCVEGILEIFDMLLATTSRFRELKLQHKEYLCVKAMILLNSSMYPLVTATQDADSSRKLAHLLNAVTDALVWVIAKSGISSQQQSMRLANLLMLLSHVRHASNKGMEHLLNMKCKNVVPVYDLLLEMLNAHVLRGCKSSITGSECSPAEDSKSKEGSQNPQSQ
# [17] = tested on: RAW264.7; test: Inhibition of RANKL-induced osteoclast differentiation in mouse RAW264.7 cells harboring ERbeta siRNA assessed as decrease in TRAP activity at 20 uM after 5 days by microscopy; format: functional, cell-based
# [18] = tested on: Mus musculus; test: Anti-osteoporotic activity in Balb/c mouse assessed as inhibition of OVX-induced cathepsin K mRNA expression level in bone marrow at 25 to 100 mg/kg, ip administered for 4 weeks daily by qRT-PCR method; format: functional, organism-based
# [19] = tested on: RAW264.7; test: Inhibition of RANKL-induced osteoclast differentiation in mouse RAW264.7 cells assessed as decrease in TRAP activity at 20 uM after 5 days in presence of ERbeta antagonist PHTPP by microscopy; format: functional, cell-based
# [20] = tested on: RAW264.7; test: Inhibition of RANKL-induced osteoclast differentiation in mouse RAW264.7 cells assessed as decrease in c-Fos mRNA level at 20 uM after 24 hrs in presence of ERalpha antagonist MPP by qRT-PCR method; format: functional, cell-based
# [21] = organism: Homo sapiens; test: Selectivity ratio of IC50 for recombinant human full length untagged ERbeta expressed in insect cells to IC50 for recombinant human full length untagged ERalpha expressed in insect cells
# [22] = tested on: Mus musculus; test: Anti-osteoporotic activity in Balb/c mouse assessed as inhibition of OVX-induced serum CTx level at 25 to 100 mg/kg, ip administered for 4 weeks daily by ELISA; format: functional, organism-based
# [23] = tested on: Mus musculus; test: Anti-osteoporotic activity in Balb/c mouse assessed as inhibition of OVX-mediated decrease in trabecular number in femur at 25 to 100 mg/kg, ip administered for 4 weeks daily by microcomputed tomography; format: functional, organism-based
# [24] = target: T1, Estrogen receptor (Mus musculus) (UniProt P19785); test: Induction of estrogen receptor-mediated AMPKalpha1 activation in mouse RAW264.7 cells at 20 uM in presence of estrogen receptor antagonist fulvestrant; format: cell-based
# T1 sequence (whole entry): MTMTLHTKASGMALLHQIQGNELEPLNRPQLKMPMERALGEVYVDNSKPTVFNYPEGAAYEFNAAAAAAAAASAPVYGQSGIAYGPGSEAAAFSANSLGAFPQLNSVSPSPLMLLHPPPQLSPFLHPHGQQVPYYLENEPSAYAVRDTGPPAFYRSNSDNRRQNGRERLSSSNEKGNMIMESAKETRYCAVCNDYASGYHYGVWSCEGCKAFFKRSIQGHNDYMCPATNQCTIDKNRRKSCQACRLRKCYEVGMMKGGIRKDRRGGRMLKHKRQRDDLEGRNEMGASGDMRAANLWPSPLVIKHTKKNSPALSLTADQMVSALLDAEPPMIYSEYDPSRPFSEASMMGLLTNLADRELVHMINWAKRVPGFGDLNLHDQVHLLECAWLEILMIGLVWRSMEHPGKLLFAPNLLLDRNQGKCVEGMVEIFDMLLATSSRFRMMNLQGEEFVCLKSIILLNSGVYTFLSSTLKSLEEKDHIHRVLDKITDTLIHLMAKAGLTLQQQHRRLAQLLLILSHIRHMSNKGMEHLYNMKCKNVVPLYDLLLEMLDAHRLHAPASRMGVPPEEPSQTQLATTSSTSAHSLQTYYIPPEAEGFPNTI
# [25] = target: MAP kinase p38 (Mus musculus) (UniProt P47811+O08911+Q9WUI1+Q9Z1B7); test: Inhibition of p38 MAPK signaling pathway in mouse RAW264.7 cells assessed as reduction in RANKL-induced p38 phosphorylation at 10 to 40 uM after 30 mins by Western blot method; format: cell-based
smiles,measurement,setting,value
COc1cc(C2Oc3c(OC)cc(/C=C/CO)cc3C2CO)ccc1O (stereo not given),inhibition,[1],Active
same,Activity,[2],Active
same,inhibition,[3],inactive
same,inhibition,[4],inactive
same,inhibition,[5],inactive
same,inhibition,[6],Active
same,inhibition,[7],inactive
same,inhibition,[8],Active
same,inhibition,[9],Active
same,inhibition,[10],inactive
same,inhibition,[11],inactive
same,inhibition,[12],Active
same,inhibition,[13],Active
same,Activity,[14],Non-Toxic
same,inhibition,[15],inactive
same,IC50,[16],286 nM
same,inhibition,[17],Active
same,inhibition,[18],Active
same,inhibition,[19],Active
same,inhibition,[20],inactive
same,Ratio IC50,[21],4.63
same,inhibition,[22],Active
same,inhibition,[23],Active
same,Activity,[24],inactive
same,inhibition,[25],Active
